{
  "source": "patent EP0016946A1",
  "about": "“Process and reagent for the activation of cholesterol esterase” (BOEHRINGER MANNHEIM GMBH, priority 1979, dated 1980)",
  "test_system": "Cholesterinesterase",
  "assay": "Cholesterol esterase activity: rate of ester cleavage, continuous-flow apparatus with photometric cholesterol indicator reaction (546 nm)",
  "assay_type": "biochemical",
  "experimental": "Zum Nachweis der aktivierenden Wirkung der zu untersuchenden synergistischen Kombinationen der Erfindung auf Cholesterinesterase wurde die in Fig. 1 dargestellte Apparatur verwendet.\nAus einem temperierbaren Reaktionsgefäß 1 (25°C), in dem sich die Esterspaltung vollzieht, werden über eine Schlauchpumpe 2 durch einen Förderschlauch 3 definierten Querschnitts kontinuierlich o,32 ml Gemisch/Minute entnommen. über die gleiche Pumpe wird durch einen zweiten Schlauch 4 aus einem Vorratsgefäß 5 ebenfalls kontinuierlich 1,o ml Indikatorlösung/Minute gefördert, hinter der Pumpe 2 mit einem Luftstrom 6 von konstant o,6 ml Luft/ Minute zusammengeführt und damit segmentiert und dann mit dem zuvor beschriebenen Reaktionsgemischstrom vereinigt. Der Gesamtstrom passiert daraufhin zwei Glasschlangen 7, wodurch eine Durchmischung der Flüssigkeiten und die notwendige Reaktionszeit für die Indikatorreaktion bis zum Endpunkt gewährleistet wird. Durch Abziehen eines Stroms von 1,2 ml/Minute unmittelbar vor der Küvette durch Schlauchleitung 8 senkrecht nach oben werden die Luftblasen wieder entfernt. Der nicht segmentierte Reststrom wird zur photometrischen Messung (bei 546 nm) in eine Durchflußküvette (1 cm Schichtdicke) geleitet und die Meßwerte werden vom Schreiber 1o registriert.\nWegen der gleichbleibenden Bedingungen bezüglich der Indikatorreaktion sind Änderungen in Höhe und Verlauf des Meßsignals allein von den Vorgängen im Reaktionsgefäß abhängig. Findet dort eine Esterspaltung statt, so bewirkt deren kinetischer Verlauf eine Zunahme des Meßsignals, welches als positive Steigung mit dem Schreiber 1o registriert wird. Die Steilheit des Anstiegs ist ein Maß für die Reaktionsgeschwindigkeit und damit für die Cholesterinesteraseaktivität im Reaktionsansatz.\nWegen des getrennten Ablaufs von Esterspaltung und Indikatorreaktion ist eine gegenseitige Beeinflussung ausgeschlossen. Natürlich wären auch andere Indikatorsysteme einschließlich der Sauerstoffelektrode verwendbar.\nDie Indikatorlösung setzt zunächst freies Cholesterin zu Cholestenon und H202 um. Das entstandene H202 wird mit Phenol und 4-Aminoantipyrin zu einem roten Farbstoff umgesetzt, dessen Absorption photometrisch gemessen wird. Die Menge des entstehenden Farbstoffs ist der Konzentration des freien Cholesterins proportional. Die Konzentration an freiem Cholesterin setzt sich aus dem bereits im Substrat vorhandenen Anteil an freiem Cholesterin sowie aus dem durch die Esterase freigesetzten Cholesterin zusammen.\nStart mit 50 µl einer Esterase-Stocklösung, woraufhin o,oo3 U/ml Esterase im Ansatz vorliegen. Bei Aktivitätsabstufungen wurde diese Menge variiert.\nNach erfolgtem Start und Durchmischung wird bei laufender Pumpe 2 der Förderschlauch 3 in die Lösung im Reaktionsgefäß 1 für etwa 1o Minuten eingetaucht. Anschließend wird zur besseren Trennung der Signale in jeweils etwa 1o Segmenten wechselweise Luft und bidest. Wasser angesaugt. Daraufhin kann die nächste Bestimmung erfolgen.",
  "data": [
    {"smiles": "CC(C)CC(C)O", "note": "(stereo not shown) [4-Methylpentanol-(2)]", "values": [
      {"measurement": "Resultierende Geschwindigkeit gegenüber Vergleichswert", "setting": "1,4 Vol.-% additive, 15 %o Tergitol NPX, 0,003 U/ml Cholesterinesterase, o,1 M Kaliumphosphatpuffer, pH 7,o with adjuvant vs o,3 M buffer without adjuvant, 25°C", "value": "Der Vergleichswert wird übertroffen"},
      {"measurement": "Resultierende Geschwindigkeit gegenüber Vergleichswert", "setting": "1 Vol.-% additive, 0,3 M Kaliumphosphatpuffer, pH 7,o, reduced Genapol OX-1oo/Natriumcaprylat concentration with adjuvant vs detergent concentration optimum without adjuvant, o,oo3 U/ml Cholesterinesterase", "value": "Der Vergleichswert wird erreicht"}
    ]},
    {"smiles": "Oc1ccccc1", "note": "[Phenol]", "values": [
      {"measurement": "Resultierende Geschwindigkeit gegenüber Vergleichswert", "setting": "4o mM (ca. o,35 Gew.-%) additive, 1o %o Genapol OX-1oo/1o %o Na-Caprylat, o,oo3 U/ml Cholesterinesterase, o,1 M Kaliumphosphatpuffer, pH 7,o with adjuvant vs o,3 M buffer without adjuvant", "value": "Der Vergleichswert wird erreicht"}
    ]},
    {"smiles": "OC1CCCCC1", "note": "[Cyclohexanol]", "values": [
      {"measurement": "Resultierende Geschwindigkeit gegenüber Vergleichswert", "setting": "1 Vol.-% additive, o,3 M Kaliumphosphatpuffer, pH 7,o, reduced Tergitol NPX concentration with adjuvant vs detergent concentration optimum without adjuvant, o,oo3 U/ml Cholesterinesterase", "value": "Der Vergleichswert wird deutlich übertroffen"},
      {"measurement": "Resultierende Geschwindigkeit gegenüber Vergleichswert", "setting": "2 Vol.-% additive (example 6.3), 15 %o Tergitol NPX, 0,003 U/ml Cholesterinesterase, o,1 M Kaliumphosphatpuffer, pH 7,o with adjuvant vs o,3 M buffer without adjuvant, 25°C", "value": "Der Vergleichswert wird deutlich übertroffen"},
      {"measurement": "Resultierende Geschwindigkeit gegenüber Vergleichswert", "setting": "2 Vol.-% additive, 0,3 M Kaliumphosphatpuffer, pH 7,o, reduced Genapol OX-1oo/Natriumcaprylat concentration with adjuvant vs detergent concentration optimum without adjuvant, o,oo3 U/ml Cholesterinesterase", "value": "Der Vergleichswert wird übertroffen"},
      {"measurement": "Resultierende Geschwindigkeit gegenüber Vergleichswert", "setting": "2 Vol.-% additive, 1o %o Genapol OX-1oo/1o %o Na-Caprylat, o,oo3 U/ml Cholesterinesterase, o,1 M Kaliumphosphatpuffer, pH 7,o with adjuvant vs o,3 M buffer without adjuvant", "value": "Der Vergleichswert wird übertroffen"}
    ]},
    {"smiles": "OCC(Cl)(Cl)Cl", "note": "[2,2,2-Trichloräthanol]", "values": [
      {"measurement": "Resultierende Geschwindigkeit gegenüber Vergleichswert", "setting": "1 Vol.-% additive, 1o %o Genapol OX-1oo/1o %o Na-Caprylat, o,oo3 U/ml Cholesterinesterase, o,1 M Kaliumphosphatpuffer, pH 7,o with adjuvant vs o,3 M buffer without adjuvant", "value": "Der Vergleichswert wird übertroffen"},
      {"measurement": "Resultierende Geschwindigkeit gegenüber Vergleichswert", "setting": "o,1 Vol.-% additive, o,3 M Kaliumphosphatpuffer, pH 7,o, reduced Tergitol NPX concentration with adjuvant vs detergent concentration optimum without adjuvant, o,oo3 U/ml Cholesterinesterase", "value": "Der Vergleichswert wird übertroffen"},
      {"measurement": "Resultierende Geschwindigkeit gegenüber Vergleichswert", "setting": "o,3 Vol.-% additive, 0,3 M Kaliumphosphatpuffer, pH 7,o, reduced Genapol OX-1oo/Natriumcaprylat concentration with adjuvant vs detergent concentration optimum without adjuvant, o,oo3 U/ml Cholesterinesterase", "value": "Der Vergleichswert wird deutlich übertroffen"}
    ]}
  ]
}
